The source of these data is ChEMBL document CHEMBL4043150, “Discovery of novel pyrazolo[1,5-a]pyridine-based EP1 receptor antagonists by scaffold hopping: Design, synthesis, and structure-activity relationships” (Bioorg Med Chem Lett, 2017).

For orientation: pIC50 means the negative decadic logarithm of the IC50, by convention in mol/L. What is called solubility is how much of the substance goes into solution per volume. As a reminder, the inhibition is the share of the control response that was lost under treatment. The AUC(0-inf) is total exposure, with the tail of the curve extrapolated. A word on the clearance: it is the rate of elimination divided by the concentration.

The target of series [1] is T1, Prostaglandin E2 receptor EP1 subtype (Rattus norvegicus, UniProt P70597).
T1 sequence (P70597 whole entry): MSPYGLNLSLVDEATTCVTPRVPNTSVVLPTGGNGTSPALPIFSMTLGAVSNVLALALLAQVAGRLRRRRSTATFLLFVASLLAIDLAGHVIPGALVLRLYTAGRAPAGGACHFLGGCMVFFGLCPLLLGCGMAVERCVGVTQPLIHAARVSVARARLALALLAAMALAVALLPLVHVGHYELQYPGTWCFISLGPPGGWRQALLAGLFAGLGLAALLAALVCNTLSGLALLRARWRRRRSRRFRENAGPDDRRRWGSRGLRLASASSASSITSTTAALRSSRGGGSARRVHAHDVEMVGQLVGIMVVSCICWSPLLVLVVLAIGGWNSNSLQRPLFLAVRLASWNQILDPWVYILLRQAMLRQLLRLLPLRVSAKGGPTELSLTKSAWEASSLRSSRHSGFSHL
Description: Antagonist activity at rat His-tagged EP1 receptor expressed in African green monkey COS1 cells assessed as reduction in PGE2-induced increase in intracellular calcium level preincubated for 60 secs followed by PGE2 addition measured for 60 secs by Fluo 4-AM dye-based fluorescence assay. In kind it is functional, cell-based.

Series [2] can be described thus: Aqueous solubility of compound. Particulars: buffer. In kind it is physicochemical.
The target of series [3] is T2, Prostaglandin E2 receptor EP1 subtype (Rattus norvegicus) (UniProt P70597).
T2 sequence (whole entry): T1 sequence (P70597 whole entry)
The series can be described thus: Antagonist activity at rat His-tagged EP1 receptor expressed in African green monkey COS1 cells assessed as reduction in PGE2-induced increase in intracellular calcium level at 10 uM preincubated for 60 secs followed by PGE2 addition measured for 60 secs by Fluo 4-AM dye-based fluorescence assay relative to control. In kind it is functional, cell-based. A general note: Calcium flux is commonly read through the fluorescence of an indicator in the cells.

Series [4] is described as follows: Initial plasma concentration in rat at 1 mg/kg, iv. In kind it is ADME, organism-based.
A short description of series [5]: AUC (0 to infinity) in rat at 1 mg/kg, iv. In kind it is ADME, organism-based. Also on record: dose 1 mg/kg, time infinity, route intravenous. Particulars: in vivo.
The nature of series [6]: Volume of distribution at steady state in rat at 1 mg/kg, iv. It is filed as ADME, organism-based. The settings on record: in vivo, read-out: Vdss.
Series [7] is described as follows: Total clearance in rat at 1 mg/kg, iv. In kind it is ADME, organism-based. The settings on record: in vivo.
The subject of the next series is Rattus norvegicus. Description: Suppression of 17-PTP-induced bladder contraction in Wistar rat assessed as change in intravesical pressure at 1 mg/kg, iv pretreated for 5 mins followed by 17-PTP administration for 9 times with 30 mins time interval up to 245 mins post dose. In kind it is functional, organism-based.

pIC50: −log10 of the molar value. Calls of active or inactive are those of the source. No cut-off for these calls is given here. A value given as a limit tells only on which side of the number the result lay.

Turning to `COc1cccc(-c2nn3cc(Cl)ccc3c2Cc2cccc(C(=O)O)n2)c1`, in series [1], the pIC50 was 6.10.

For the molecule `O=C(O)c1cccc(Cc2c(-c3ccccc3)nn3ccccc23)n1`, the pIC50 in series [1] is 5.64.

Take `C=C(C)c1ccc2c(Cc3cccc(C(=O)O)n3)c(-c3ccccc3)nn2c1`: the pIC50 in series [1] was 6.54.

On to `O=C(O)c1cccc(Cc2c(-c3ccccc3)nn3cc(C4CC4)ccc23)n1`, for which the pIC50 in series [1] was 6.72.

For `O=C(O)c1cccc(Cc2c(N3CCSCC3)nn3cc(Cl)ccc23)n1`, in series [1], the pIC50 was 6.59.

Turning to `Cc1cc(C(=O)O)nn1Cc1cc(Cl)cc2cc(-c3ccccc3)nn12`, the solubility in series [2] is more than 75 µM.

For the molecule `O=C(O)c1cccc(Cc2c(-c3cccs3)nn3cc(Cl)ccc23)n1`, the pIC50 in series [1] was 5.96.

Regarding `O=C(O)c1cccc(Cc2c(-c3ccccc3)nn3cc(F)ccc23)n1`, the pIC50 in series [1] was 6.42.

Regarding `O=C(O)c1cccc(Cc2c(N3CCCC3)nn3cc(Cl)ccc23)n1`, the pIC50 in series [1] is 5.74.

For the molecule `COc1cccc2c(Cc3cccc(C(=O)O)n3)c(-c3ccccc3)nn12`, the inhibition in series [3] came out at 33%.

In the case of `O=C(O)c1cccc(Cc2c(-c3ccccc3Cl)nn3cc(Cl)ccc23)n1`, the pIC50 in series [1] was 6.19.

`O=C(O)c1cccc(Cc2c(-c3ccccc3)nn3cc(Cl)ccc23)n1` registered a C0 in series [4] of 2750 ng/mL. In series [5], this molecule gave an AUC(0-inf) of 1590 ng·h/mL. In series [6], the Vd came to 0.489 L/kg. This molecule displayed a clearance in series [7] of 10.7 mL/min/kg. Also, the outcome with Rattus norvegicus was Active.

As for `O=C(O)c1cccc(Cc2c(-c3ccsc3)nn3cc(Cl)ccc23)n1`, the pIC50 in series [1] is 6.96.

In the case of `O=C(O)c1cccc(Cc2c(-c3ccco3)nn3cc(Cl)ccc23)n1`, the negative-log IC50 (pIC50) in series [1] is 5.92.

On to `CC(C)Cc1nn2cc(Cl)ccc2c1Cc1cccc(C(=O)O)n1`, for which the pIC50 in series [1] was 6.70.

Take `O=C(O)c1cccc(Cc2c(C3CCCCC3)nn3cc(Cl)ccc23)n1`: the pIC50 in series [1] is 5.92.

As for `COc1ccc(-c2nn3cc(Cl)ccc3c2Cc2cccc(C(=O)O)n2)cc1`, in series [1], the pIC50 was 5.27.

For `CS(=O)(=O)c1ccc2c(Cc3cccc(C(=O)O)n3)c(-c3ccccc3)nn2c1`, the pIC50 in series [1] is 5.27.

For `O=C(O)c1cccc(Cc2c(N3CCCCCC3)nn3cc(Cl)ccc23)n1`, the pIC50 in series [1] is 5.85.

On to `O=C(O)c1cccc(Cc2c(-c3cccc(Cl)c3)nn3cc(Cl)ccc23)n1`, for which, in series [1], the pIC50 was 6.32.

Consider `O=C(O)c1cccc(Cc2c(N3CCOCC3)nn3cc(Cl)ccc23)n1`, for which, in series [1], the pIC50 was 6.13.

Consider `O=C(O)c1cccc(Cc2c(C3CC3)nn3cc(Cl)ccc23)n1`, for which the pIC50 in series [1] was 5.82.

With `N#Cc1ccc2c(Cc3cccc(C(=O)O)n3)c(-c3ccccc3)nn2c1`, the pIC50 in series [1] was 6.36.

Regarding `COc1ccc2c(Cc3cncc(C(=O)O)n3)c(-c3ccccc3)nn2c1`, in series [1], the pIC50 was 5.35.

With `COc1ccc2c(Cc3cccc(C(=O)O)n3)c(-c3ccccc3)nn2c1`, in series [4], the C0 is 2660 ng/mL. Besides, in series [5], the AUC(0-inf) worked out at 2780 ng·h/mL. Further, in series [6], the Vd was 0.45 L/kg. In addition, in series [7], the clearance turned out to be 6.12 mL/min/kg. Further, the outcome in the series on Rattus norvegicus was Active. Moreover, the solubility in series [2] was more than 75 µM.

As for `COc1ccn2nc(-c3ccccc3)c(Cc3cccc(C(=O)O)n3)c2c1`, the negative-log IC50 (pIC50) in series [1] is 5.04.

Consider `O=C(O)c1cccc(Cc2c(-c3ccccc3)nn3cc(C(F)(F)F)ccc23)n1`, for which the pIC50 in series [1] was 7.80. In addition, in series [4], the C0 was determined as 2430 ng/mL. In series [5], the AUC(0-inf) was 4360 ng·h/mL. Moreover, the Vd in series [6] stood at 0.473 L/kg. Further, the clearance in series [7] came out at 3.84 mL/min/kg. For the same molecule, the outcome with Rattus norvegicus was Active.

With `CC(=O)c1ccc2c(Cc3cccc(C(=O)O)n3)c(-c3ccccc3)nn2c1`, the pIC50 in series [1] was 5.96.

Consider `COc1ccccc1-c1nn2cc(Cl)ccc2c1Cc1cccc(C(=O)O)n1`, for which, in series [3], the inhibition was 29%.

For `O=C(O)c1cccc(Cc2c(-c3ccoc3)nn3cc(Cl)ccc23)n1`, in series [1], the pIC50 was 6.89.

For `O=C(O)c1cccc(Cc2c(-c3ccc(Cl)cc3)nn3cc(Cl)ccc23)n1`, the pIC50 in series [1] is 5.96.
